{"source": "ChEMBL document CHEMBL3734723", "about": "“Synthesis and anticancer activity of 6-heteroarylcoumarins” (2015)", "format_in_all_cases": "functional", "key": {"[1]": {"assay": "Cytotoxicity against human OVCAR3 cells assessed as cell growth at 10 uM incubated for 48 hrs by sulforhodamine B assay", "settings": "OVCAR-3, 48 h, read-out: Activity"}, "[2]": {"assay": "Cytotoxicity against human UACC257 cells assessed as cell growth at 10 uM incubated for 48 hrs by sulforhodamine B assay", "settings": "UACC-257, 48 h, read-out: Activity"}, "[3]": {"assay": "Cytotoxicity against human BT549 cells assessed as cell growth at 10 uM incubated for 48 hrs by sulforhodamine B assay", "settings": "BT-549, 48 h, read-out: Activity"}, "[4]": {"assay": "Growth inhibition of human OVCAR4 cells incubated for 48 hrs by sulforhodamine B assay", "settings": "OVCAR-4, 48 h"}, "[5]": {"tested_on": "SK-MEL-28", "assay": "Cytotoxicity against human SK-MEL-28 cells assessed as cell growth at 10 uM incubated for 48 hrs by sulforhodamine B assay", "settings": "SK-MEL-28, 48 h, read-out: Activity"}, "[6]": {"assay": "Cytotoxicity against human HCC2998 cells assessed as cell growth at 10 uM incubated for 48 hrs by sulforhodamine B assay", "settings": "HCC 2998, 48 h, read-out: Activity"}, "[7]": {"tested_on": "SR", "assay": "Growth inhibition of human SR cells incubated for 48 hrs by sulforhodamine B assay"}, "[8]": {"assay": "Growth inhibition of human MOLT4 cells incubated for 48 hrs by sulforhodamine B assay", "settings": "MOLT-4, 48 h"}, "[9]": {"assay": "Growth inhibition of human HL-60(TB) cells incubated for 48 hrs by sulforhodamine B assay", "settings": "HL-60, 48 h"}, "[10]": {"tested_on": "NCI-H322M", "assay": "Cytotoxicity against human NCI-H322M cells assessed as cell growth at 10 uM incubated for 48 hrs by sulforhodamine B assay", "settings": "read-out: Activity"}, "[11]": {"tested_on": "NCI-H226", "assay": "Cytotoxicity against human NCI-H226 cells assessed as cell growth at 10 uM incubated for 48 hrs by sulforhodamine B assay", "settings": "NCI-H226, 48 h, read-out: Activity"}, "[12]": {"tested_on": "EKVX", "assay": "Growth inhibition of human EKVX cells incubated for 48 hrs by sulforhodamine B assay"}, "[13]": {"assay": "Cytotoxicity against human HOP62 cells assessed as cell growth at 10 uM incubated for 48 hrs by sulforhodamine B assay", "settings": "HOP-62, 48 h, read-out: Activity"}, "[14]": {"tested_on": "MDA-MB-435", "assay": "Growth inhibition of human MDA-MB-435 cells incubated for 48 hrs by sulforhodamine B assay", "settings": "MDA-MB-435, 48 h"}, "[15]": {"assay": "Growth inhibition of human SF295 cells incubated for 48 hrs by sulforhodamine B assay", "settings": "SF-295, 48 h"}, "[16]": {"assay": "Cytotoxicity against human OVCAR8 cells assessed as cell growth at 10 uM incubated for 48 hrs by sulforhodamine B assay", "settings": "OVCAR-8, 48 h, read-out: Activity"}, "[17]": {"assay": "Growth inhibition of human Caki1 cells incubated for 48 hrs by sulforhodamine B assay", "settings": "CAKI-1, 48 h"}, "[18]": {"settings": "read-out: LC50 (the source's name)"}}, "data": [{"smiles": "Cc1cc(=O)oc2c(C)c(O)c(-c3cc4ccc(F)cc4[nH]3)cc12", "values": [{"measurement": "growth at 10 µM", "setting": "[1]", "value": 16.5, "unit": "%"}, {"measurement": "growth at 10 µM", "setting": "[2]", "value": 30.4, "unit": "%"}, {"measurement": "growth at 10 µM", "setting": "[3]", "value": 47.6, "unit": "%"}, {"measurement": "GI50", "setting": "[4]", "value": 3.99, "unit": "µM"}, {"measurement": "TGI", "setting": "[4]", "value": 32.9, "unit": "µM"}, {"measurement": "CC50", "setting": "[4]; [18]", "value": "> 100", "unit": "µM"}, {"measurement": "growth at 10 µM", "setting": "[5]", "value": 55.3, "unit": "%"}, {"measurement": "growth at 10 µM", "setting": "[6]", "value": 24.9, "unit": "%"}, {"measurement": "GI50", "setting": "[7]", "value": 3.24, "unit": "µM"}, {"measurement": "TGI", "setting": "[7]", "value": 16.9, "unit": "µM"}, {"measurement": "CC50", "setting": "[7]; [18]", "value": "> 100", "unit": "µM"}, {"measurement": "GI50", "setting": "[8]", "value": 3.27, "unit": "µM"}, {"measurement": "TGI", "setting": "[8]", "value": 15, "unit": "µM"}, {"measurement": "CC50", "setting": "[8]; [18]", "value": "> 100", "unit": "µM"}, {"measurement": "GI50", "setting": "[9]", "value": 2.96, "unit": "µM"}, {"measurement": "TGI", "setting": "[9]", "value": 9.69, "unit": "µM"}, {"measurement": "CC50", "setting": "[9]; [18]", "value": "> 100", "unit": "µM"}, {"measurement": "growth at 10 µM", "setting": "[10]", "value": 53.4, "unit": "%"}]}, {"smiles": "Cc1cc(=O)oc2c(C)c(O)c(-c3ccnc(N)n3)cc12", "values": [{"measurement": "growth at 10 µM", "setting": "[11]", "value": 52.3, "unit": "%"}, {"measurement": "GI50", "setting": "[12]", "value": 48.4, "unit": "µM"}, {"measurement": "TGI", "setting": "[12]", "value": "> 100", "unit": "µM"}, {"measurement": "CC50", "setting": "[12]; [18]", "value": "> 100", "unit": "µM"}, {"measurement": "growth at 10 µM", "setting": "[13]", "value": 67.8, "unit": "%"}, {"measurement": "GI50", "setting": "[14]", "value": "> 100", "unit": "µM"}, {"measurement": "TGI", "setting": "[14]", "value": "> 100", "unit": "µM"}, {"measurement": "CC50", "setting": "[14]; [18]", "value": "> 100", "unit": "µM"}, {"measurement": "GI50", "setting": "[15]", "value": 8.74, "unit": "µM"}, {"measurement": "TGI", "setting": "[15]", "value": "> 100", "unit": "µM"}, {"measurement": "CC50", "setting": "[15]; [18]", "value": "> 100", "unit": "µM"}, {"measurement": "growth at 10 µM", "setting": "[16]", "value": 48, "unit": "%"}, {"measurement": "GI50", "setting": "[17]", "value": 3.95, "unit": "µM"}, {"measurement": "TGI", "setting": "[17]", "value": "> 100", "unit": "µM"}, {"measurement": "CC50", "setting": "[17]; [18]", "value": "> 100", "unit": "µM"}]}]}
